According to US11813362B2, “Film-coated tablet comprising a triazine derivative for use in the treatment of diabetes” (Poxel, priority 2018, dated 2023):

Assay: Compatibility tests of imeglimin with excipients as 50:50 (w/w) binary mixture
Type: physicochemical
Text: In a preferred embodiment, the binder consists of hydroxypropylcellulose. In other embodiments, it may comprise at least one other binder in addition to hydroxypropylcellulose, which may be selected from: microcrystalline cellulose, methylcellulose, ethylcellullose, hydroxyethylcellulose, hydroxypropylmethylcellulose (hypromellose), sodium carboxymethylcellulose (carmellose), gelatin, gum arabic, dextrin, maltodextrin, pregelatinized starch, gelatin, acacia gum, guar gum, sodium alginate, alginic acid, carbomer, polyvinyl alcohol and mixtures thereof. […] The binder(s) may represent from 1.5 to 4.5 wt. %, preferably from 3.5 to 4.5 wt. %, relative to the total weight of the tablet.
In addition to the binder(s), the tablet of this invention comprises at least one disintegrant. […] The disintegrant may thus be selected from the group consisting of: sodium croscarmellose, sodium carboxymethyl starch, hydroxypropylcellulose, calcium carboxymethylcellulose, microcrystalline cellulose, calcium carbonate, magnesium aluminum silicate, sodium starch glycolate, pregelatinized starch, sodium alginate, alginic acid, guar gum and their mixtures, for instance. Preferably, the disintegrant comprises, or preferably is, sodium croscarmellose. The disintegrant(s) may represent from 1.5 to 3 wt. %, preferably from 1.8 to 2.2 wt. %, relative to the total weight of the tablet.

## C[C@@H]1NC(=N)N=C(N(C)C)N1.Cl [imeglimin, (+)-2-amino-3,6-dihydro-4-dimethylamino-6-methyl-1,3,5-triazine hydrochloride]
50:50 (w/w) binary mixture with crospovidone
  formation of degradation products (compatibility): degradation products are formed
50:50 (w/w) binary mixture with polyvinylpyrrolidone (povidone)
  formation of degradation products (compatibility): degradation products are formed
